Like-named read-outs stand apart in the source and are kept apart here.
What was measured:
GABAA = test: NOVASCREEN receptor selectivity assay: GABAA; format: binding; settings: 10^-5 M
EGF = test: NOVASCREEN receptor selectivity assay: EGF; format: binding; settings: 10^-5 M
Serotonin 2 = test: NOVASCREEN receptor selectivity assay: Serotonin 2; format: binding; settings: 10^-5 M
VIP = test: NOVASCREEN receptor selectivity assay: VIP; format: binding; settings: 10^-5 M
Glycine [1] = test: NOVASCREEN receptor selectivity assay: Glycine (excitatory); format: binding; settings: 10^-5 M
Male Sprague-Dawley rats = test: Food intake in 24-hour-fasted rats; format: in vivo, rat
Procedure: Male Sprague-Dawley rats (200-300 grams) were used in all experiments. Rats were fasted for 24 hours prior to all experiments. Water was provided ad lib. Rats were singly placed in a ventilated plastic circular rat metabolism chamber with a stainless steel wire mess grid flood equipped with food and H2 O attachments. A measured quantity of food (50 grams) and water (100 mls) was supplied through attachments to the metabolism chambers. Food and water intake was measured at the 2, 4 and 6 hour time periods.
Final volumes were 1.0 ml/kg. Subsequently, they were left undisturbed for the experimental period except when the food and H2 O attachments were briefly removed for measurement of food and water intake. At the completion of the experiment, animals were returned to their home cages. The results are found in Table III and FIGS. 7 and 8.

NPY = test: NOVASCREEN receptor selectivity assay: NPY; format: binding; settings: 10^-5 M
Quisqualate = test: NOVASCREEN receptor selectivity assay: Quisqualate; format: binding; settings: 10^-5 M
Dopamine 2 = test: NOVASCREEN receptor selectivity assay: Dopamine 2; format: binding; settings: 10^-5 M
Somatostatin = test: NOVASCREEN receptor selectivity assay: Somatostatin; format: binding; settings: 10^-5 M
Angiotensin = test: NOVASCREEN receptor selectivity assay: Angiotensin; format: binding; settings: 10^-5 M
Substance P = test: NOVASCREEN receptor selectivity assay: Substance P; format: binding; settings: 10^-5 M
Benzodiazephine = test: NOVASCREEN receptor selectivity assay: Benzodiazephine; format: binding; settings: 10^-5 M
CCK Peripheral = test: NOVASCREEN receptor selectivity assay: CCK Peripheral; format: binding; settings: 10^-5 M
CCK Central = test: NOVASCREEN receptor selectivity assay: CCK Central; format: binding; settings: 10^-5 M
Adenosine = test: NOVASCREEN receptor selectivity assay: Adenosine; format: binding; settings: 10^-5 M
ANF (rat) = test: NOVASCREEN receptor selectivity assay: ANF (rat); format: binding; settings: 10^-5 M
[2] = system: Protein Kinase C Phorbol Ester; test: NOVASCREEN receptor selectivity assay: Protein Kinase C, Phorbol Ester; format: binding; settings: 10^-5 M
Serotonin 1 = test: NOVASCREEN receptor selectivity assay: Serotonin 1; format: binding; settings: 10^-5 M
[3] = system: H3 receptors in the cortex; test: Blood-brain barrier penetration by ex vivo binding of [^3 H]-N^α -methylhistamine in rat cortex
Procedure: Blood-brain barrier penetration in rats was assessed by an ex vivo binding procedure. Young adult male Long-Evans rats were injected i.p. with saline or H3 antagonists in saline. At various times after injection animals were sacrificed, the cortex was removed, homogenized in 50 mM Na/K-phosphate buffer, pH 7.4, and the binding of 1 nM [^3 H]-N^α -methylhistamine was measured using 400 μg protein of the homogenate. Nonspecific binding was accounted for by the inclusion of excess thioperamide in some samples. Under these conditions, the binding was approximately 90% specific.

PCP = test: NOVASCREEN receptor selectivity assay: PCP; format: binding; settings: 10^-5 M
NMDA = test: NOVASCREEN receptor selectivity assay: NMDA; format: binding; settings: 10^-5 M
Arg-Vasopressin V1 = test: NOVASCREEN receptor selectivity assay: Arg-Vasopressin V1; format: binding; settings: 10^-5 M
[4] = system: adenosine, excitory or inhibitory amino acid, dopamine, serotonin, or a broad range of petidergic receptors, or to ion channel proteins, peptide factor or …; test: NOVASCREEN receptor selectivity study (whole panel); format: binding; settings: 10^-5 M
Potassium = test: NOVASCREEN receptor selectivity assay: Potassium; format: binding; settings: 10^-5 M
Calcium [5] = test: NOVASCREEN receptor selectivity assay: Calcium (Nifedipine); format: binding; settings: 10^-5 M
Inositol Triphosphate [6] = test: NOVASCREEN receptor selectivity assay: Inositol Triphosphate; format: binding; settings: 10^-5 M
Neurotensin = test: NOVASCREEN receptor selectivity assay: Neurotensin; format: binding; settings: 10^-5 M
Kainate = test: NOVASCREEN receptor selectivity assay: Kainate; format: binding; settings: 10^-5 M
Dopamine 1 = test: NOVASCREEN receptor selectivity assay: Dopamine 1; format: binding; settings: 10^-5 M
Glycine [7] = test: NOVASCREEN receptor selectivity assay: Glycine (inhibitory); format: binding; settings: 10^-5 M
H3 -receptor = test: In vivo assays of H3-receptor antagonist effect (overall)
Procedure: (§1) The overall strategy to show central nervous system antagonist activity was to challenge effects of the agonist (R)α-methylhistamine. Therefore, the first objective was to establish a dose response curve for behavioral effects of (R)α-methylhistamine. Male albino CF-1 mice weighing 20-30 g were used. Saline or (R)α-methylhistamine in saline was injected i.p. in a volume ≤0.4 ml. […] Animals were scored for the presence (1) or absence (0) of the behavior and the results were reported as the accumulated score for a 30 minute period (maximum score=9).
(§2) To assess the effects of antagonists, they were administered with the (R)α-methylhistamine in saline.

Substance K = test: NOVASCREEN receptor selectivity assay: Substance K; format: binding; settings: 10^-5 M
Chloride = test: NOVASCREEN receptor selectivity assay: Chloride; format: binding; settings: 10^-5 M
MK-801 = test: NOVASCREEN receptor selectivity assay: MK-801; format: binding; settings: 10^-5 M
NGF = test: NOVASCREEN receptor selectivity assay: NGF; format: binding; settings: 10^-5 M
GABAB = test: NOVASCREEN receptor selectivity assay: GABAB; format: binding; settings: 10^-5 M
[8] = Toxicity observed in testing to date; format: in vivo; settings: all testing to date, even at high doses
[9] = system: Adenylate Cyclase Forskolin; test: NOVASCREEN receptor selectivity assay: Adenylate Cyclase, Forskolin; format: binding; settings: 10^-5 M
Calcium [10] = format: binding; settings: 10^-5 M
Bombesin = test: NOVASCREEN receptor selectivity assay: Bombesin; format: binding; settings: 10^-5 M
Male albino CF-1 mice = test: Behavioral effects in mice: sleep induced by (R)α-methylhistamine; format: in vivo, mouse
Procedure: as §1, §2

Inositol Triphosphate [11] = settings: reference compound; cited from earlier work
brain in rats = settings: cited from earlier work
histamine H3 receptors = settings: in vitro; cited from earlier work
histamine H3 receptor = biological target: T1, histamine H3 receptor (Rattus norvegicus, UniProt Q9QYN8); test: Inhibition of [^3 H]-N-alpha-methylhistamine binding to rat brain membranes
T1 construct: from tissue
Procedure: A series of compounds were prepared and tested for their histamine H3 receptor antagonist activity. The antagonist activity of the compounds was detected by observing inhibition of (^3 H)-N-(alpha)methylhistamine activity on rat brain membranes.
The various compounds were tested for the ability to bind to the histamine H3 receptor. A binding assay in a rat brain membrane preparation, based on inhibition of binding of [^3 H]-N-alpha-methylhistamine using excess unlabeled alpha-methylhistamine to account for nonspecific binding, was developed.

[12] = system: animal toxicity studies or in clinical usage; settings: cited from earlier work
peptic ulcer patients = settings: cited from earlier work

T1 sequence (Q9QYN8 whole entry): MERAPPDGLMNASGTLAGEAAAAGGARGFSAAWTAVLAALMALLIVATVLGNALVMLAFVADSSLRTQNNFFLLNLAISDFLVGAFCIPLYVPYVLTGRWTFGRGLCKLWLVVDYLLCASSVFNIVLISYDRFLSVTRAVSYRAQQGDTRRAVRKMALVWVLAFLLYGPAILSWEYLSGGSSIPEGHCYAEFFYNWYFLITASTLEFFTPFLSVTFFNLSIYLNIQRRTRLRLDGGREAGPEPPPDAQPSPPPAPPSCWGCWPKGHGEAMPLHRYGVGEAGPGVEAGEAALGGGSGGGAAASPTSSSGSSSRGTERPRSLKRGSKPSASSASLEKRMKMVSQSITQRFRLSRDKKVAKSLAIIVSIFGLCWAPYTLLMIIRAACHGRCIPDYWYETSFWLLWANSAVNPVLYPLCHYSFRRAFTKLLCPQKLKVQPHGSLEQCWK

O=C(CCCCC1CCCCC1)N1CCC(c2c[nH]cn2)CC1 [Compound 1, 4-(1-cyclohexylvaleroyl-4-piperidyl)-1H-imidazole]
Initial Percent Inhibition (Average; N = 2) (GABAA): 0.6%
Initial Percent Inhibition (Average; N = 2) (EGF): 18.1%
Initial Percent Inhibition (Average; N = 2) (Serotonin 2): 10.5%
Initial Percent Inhibition (Average; N = 2) (VIP): 17.1%
Initial Percent Inhibition (Average; N = 2) (Glycine [1]): 1.8%
food intake 2 HR (Male Sprague-Dawley rats; 3 mg/kg i.p.): 5.687
food intake 4 HR (Male Sprague-Dawley rats; 3 mg/kg i.p.): 7.333
food intake 2 HR (Male Sprague-Dawley rats; 10 mg/kg i.p.): 2.000
food intake 4 HR (Male Sprague-Dawley rats; 10 mg/kg i.p.): 5.167
food intake 2 HR (Male Sprague-Dawley rats; 30 mg/kg i.p.): 1.167
food intake 4 HR (Male Sprague-Dawley rats; 30 mg/kg i.p.): 2.333
food intake 6 HR (Male Sprague-Dawley rats; 30 mg/kg i.p.): 5.000
Initial Percent Inhibition (Average; N = 2) (NPY): -8.7%
Initial Percent Inhibition (Average; N = 2) (Quisqualate): -1.8%
Initial Percent Inhibition (Average; N = 2) (Dopamine 2): 3.5%
Initial Percent Inhibition (Average; N = 2) (Somatostatin): 4.1%
Initial Percent Inhibition (Average; N = 2) (Angiotensin): 6.5%
Initial Percent Inhibition (Average; N = 2) (Substance P): 20.0%
Initial Percent Inhibition (Average; N = 2) (Benzodiazephine): 2.7%
Initial Percent Inhibition (Average; N = 2) (CCK Peripheral): 6.9%
Initial Percent Inhibition (Average; N = 2) (CCK Central): 18.6%
Initial Percent Inhibition (Average; N = 2) (Adenosine): -3.0%
Initial Percent Inhibition (Average; N = 2) (ANF (rat)): 0.1%
Initial Percent Inhibition (Average; N = 2) [2]: 0.9%
Initial Percent Inhibition (Average; N = 2) (Serotonin 1): -3.6%
penetration of the blood-brain barrier (in words) ([3]; 50 and 70 mg/kg, one hour after injection): penetrates the blood-brain barrier one hour after injections
penetration of the blood-brain barrier compared with thioperamide (in words) ([3]; taking into account the difference in affinity): penetrates the blood-brain barrier at least as well as thioperamide
Initial Percent Inhibition (Average; N = 2) (PCP): 9.7%
Initial Percent Inhibition (Average; N = 2) (NMDA): -4.5%
Initial Percent Inhibition (Average; N = 2) (Arg-Vasopressin V1): 10.1%
binding to panel receptors (in words) [4]: no significant binding
Initial Percent Inhibition (Average; N = 2) (Potassium): 7.7%
Initial Percent Inhibition (Average; N = 2) (Calcium [5]): 8.1%
Initial Percent Inhibition (Average; N = 2) (Inositol Triphosphate [6]): 9.2%
Initial Percent Inhibition (Average; N = 2) (Neurotensin): -10.5%
Initial Percent Inhibition (Average; N = 2) (Kainate): 42.1%
Initial Percent Inhibition (Average; N = 2) (Dopamine 1): 6.4%
Initial Percent Inhibition (Average; N = 2) (Glycine [7]): 17.4%
H3 -receptor antagonist effect (in words) (H3 -receptor): effective as an H3 -receptor antagonist
Initial Percent Inhibition (Average; N = 2) (Substance K): 29.2%
Initial Percent Inhibition (Average; N = 2) (Chloride): -3.4%
Initial Percent Inhibition (Average; N = 2) (MK-801): -8.6%
Initial Percent Inhibition (Average; N = 2) (NGF): 17.1%
Initial Percent Inhibition (Average; N = 2) (GABAB): 0.0%
toxicity (in words) [8]: no toxicity
Initial Percent Inhibition (Average; N = 2) [9]: 2.1%
Initial Percent Inhibition (Average; N = 2) (Calcium [10]): 1.9%
Initial Percent Inhibition (Average; N = 2) (Bombesin): -5.5%
soporific effect of (R)α-methylhistamine (in words) (Male albino CF-1 mice; 25 mg/kg (R)α-methylhistamine): inhibited the soporific effect

O=P(O)(O)O[C@@H]1[C@H](O)[C@H](O)[C@@H](OP(=O)(O)O)[C@H](OP(=O)(O)O)[C@H]1O [IP3]
Ki (Inositol Triphosphate [11]): 12.5 nM

S=C(NC1CCCCC1)N1CCC(c2cnc[nH]2)CC1 [Thioperamide, reference compound]
dose required in vivo to inhibit histamine release from the brain (in words) (brain in rats): relatively high doses are required in vivo
binding of [^3 H]-N^α -methylhistamine to cortex (in words) ([3]; 2, 5, and 10 mg/kg i.p., 15 min after injection): decreased the binding of [^3 H]-N^α -methylhistamine
penetration of the blood-brain barrier (in words) ([3]; thioperamide 2, 5, 10 mg/kg i.p., 15 min): able to penetrate the blood-brain barrier
Ki (histamine H3 receptors): 4.3 nM
IC50 (histamine H3 receptor): 4 ± 0.6 nM
IC50 (histamine H3 receptor; read-out: affinity, repeated in text): 4 nM
soporific effect of (R)α-methylhistamine (in words) (Male albino CF-1 mice; 30 mg/kg of (R)α-methylhistamine): able to inhibit the soporific effect
behavior with antagonist alone (in words) (Male albino CF-1 mice; in the absence of the α-methylhistamine H3 receptor agonist): animals were very active, exhibiting normal behaviors

CN/C(=N/CCSCc1nc[nH]c1C)NC#N [cimetidine]
granulocytopenia or other side effects (in words) [12]: did not cause granulocytopenia, or any other side effects

C/N=C(\S)NCCSCc1[nH]cnc1C [metiamide]
granulocytopenia (in words) (peptic ulcer patients): low incidence of granulocytopenia

Reference: patent US5486526A, “Histamine H3 -receptor antagonists and therapeutic uses thereof” (The University of Toledo, priority 1993, dated 1996)
